Measured values taken from the NIST ThermoML archive (doi:10.1016/j.jct.2003.09.005).
Where “and” joins values, the source holds several entries; their conditions need not be identical. Equal entries are not always repeated. Numbers after ± are expanded uncertainties.

Key:
[1] = xn = mol fraction of the nth substance listed; details: 298.15 K, 101.33 kPa, Liquid, Vibrating tube method
[2] = 298.15 K; 101.33 kPa; Liquid

mass density [2] [kg/m3] | Structure (SMILES) | also measured
– | O=C1OCCO1 [ethylene carbonate] + CCOC(C)=O | mass density ([1]; x2 = 0.4577): 1118.46 ± 0.58 kg/m3 [middle of 4 runs]
882.01 ± 0.54 | C1CCOC1 [tetrahydrofuran] | –
861.43 ± 0.56 | COCCOC [1,2-dimethoxyethane] | –
– | O=C1OCCO1 [ethylene carbonate] + CC#N | mass density ([1]; x2 = 0.5533): 1070.54 ± 0.55 kg/m3 and 1071.16 ± 0.54 kg/m3
– | O=C1OCCO1 [ethylene carbonate] + COCCOC | mass density ([1]; x2 = 0.4158): 1099.62 ± 0.57 kg/m3 and 1099.78 ± 0.56 kg/m3 and 1100.01 ± 0.56 kg/m3
776.69 ± 0.62 | CC#N [acetonitrile] | –
894.51 ± 0.54 | CCOC(C)=O [ethyl acetate] | –
– | O=C1OCCO1 [ethylene carbonate] + C1CCOC1 | mass density ([1]; x2 = 0.4631): 1110.32 ± 0.57 kg/m3 and 1109.98 ± 0.57 kg/m3 and 1109.85 ± 0.57 kg/m3
